Results published in publication PMC7773179, “Development and application of high-throughput screens for the discovery of compounds that disrupt ErbB4 signaling: Candidate cancer therapeutics” (PLoS ONE, 2020).

How the values were obtained:
[1] = tested on: BaF3/EGFR+ErbB4 cells; assay: ErbB4-dependent (NRG1β-induced, IL3-independent) proliferation of BaF3/EGFR+ErbB4 cells, semi-automated MTT assay; type: cell-based, Mouse; conditions: for selective and potent inhibition of ErbB4-dependent cell proliferation (in words): ErbB4-dependent versus IL3-dependent proliferation; for IC50: Mus musculus, BaF3, read-out: IC50 against 0.3 nM NRG1β, three independent trials; for IC50 / NRG1β Emax ± SE in the presence of candidate: 120 h MTT; for NRG1β Emax ± SE in the presence of candidate: increasing NRG1β, three trials
Method: This proliferation is dependent upon exogenous ErbB4 expression.
As noted earlier, the BaF3/EGFR+ErbB4 cells are IL3 dependent and this dependency can be rescued by stimulation of ErbB4 coupling to cell proliferation. Therefore, the specificity of each of the 19 candidate ErbB4 inhibitors was tested by assaying inhibition of ErbB4-dependent and IL3-dependent cellular proliferation in parallel.

[2] = molecular target: T1, ErbB4 (Homo sapiens, UniProt Q15303); assay: phospho-ErbB4 sandwich ELISA: stimulation of ErbB4 tyrosine phosphorylation in CEM/ErbB4 cells; type: cell-based; conditions: for Emax: percentage of ErbB4 tyrosine phosphorylation stimulated by 10 nM NRG1β, read-out: ErbB4 Tyrosine Phosphorylation Emax ± SE; for EC50: semi-automated, 0–30 μM, at least three independent trials, read-out: ErbB4 Tyrosine Phosphorylation EC50 ± SE
T1 construct: expressed in transfected cells; host or cells: CEM/ErbB4 cells
T1 sequence (Q15303 26-1308): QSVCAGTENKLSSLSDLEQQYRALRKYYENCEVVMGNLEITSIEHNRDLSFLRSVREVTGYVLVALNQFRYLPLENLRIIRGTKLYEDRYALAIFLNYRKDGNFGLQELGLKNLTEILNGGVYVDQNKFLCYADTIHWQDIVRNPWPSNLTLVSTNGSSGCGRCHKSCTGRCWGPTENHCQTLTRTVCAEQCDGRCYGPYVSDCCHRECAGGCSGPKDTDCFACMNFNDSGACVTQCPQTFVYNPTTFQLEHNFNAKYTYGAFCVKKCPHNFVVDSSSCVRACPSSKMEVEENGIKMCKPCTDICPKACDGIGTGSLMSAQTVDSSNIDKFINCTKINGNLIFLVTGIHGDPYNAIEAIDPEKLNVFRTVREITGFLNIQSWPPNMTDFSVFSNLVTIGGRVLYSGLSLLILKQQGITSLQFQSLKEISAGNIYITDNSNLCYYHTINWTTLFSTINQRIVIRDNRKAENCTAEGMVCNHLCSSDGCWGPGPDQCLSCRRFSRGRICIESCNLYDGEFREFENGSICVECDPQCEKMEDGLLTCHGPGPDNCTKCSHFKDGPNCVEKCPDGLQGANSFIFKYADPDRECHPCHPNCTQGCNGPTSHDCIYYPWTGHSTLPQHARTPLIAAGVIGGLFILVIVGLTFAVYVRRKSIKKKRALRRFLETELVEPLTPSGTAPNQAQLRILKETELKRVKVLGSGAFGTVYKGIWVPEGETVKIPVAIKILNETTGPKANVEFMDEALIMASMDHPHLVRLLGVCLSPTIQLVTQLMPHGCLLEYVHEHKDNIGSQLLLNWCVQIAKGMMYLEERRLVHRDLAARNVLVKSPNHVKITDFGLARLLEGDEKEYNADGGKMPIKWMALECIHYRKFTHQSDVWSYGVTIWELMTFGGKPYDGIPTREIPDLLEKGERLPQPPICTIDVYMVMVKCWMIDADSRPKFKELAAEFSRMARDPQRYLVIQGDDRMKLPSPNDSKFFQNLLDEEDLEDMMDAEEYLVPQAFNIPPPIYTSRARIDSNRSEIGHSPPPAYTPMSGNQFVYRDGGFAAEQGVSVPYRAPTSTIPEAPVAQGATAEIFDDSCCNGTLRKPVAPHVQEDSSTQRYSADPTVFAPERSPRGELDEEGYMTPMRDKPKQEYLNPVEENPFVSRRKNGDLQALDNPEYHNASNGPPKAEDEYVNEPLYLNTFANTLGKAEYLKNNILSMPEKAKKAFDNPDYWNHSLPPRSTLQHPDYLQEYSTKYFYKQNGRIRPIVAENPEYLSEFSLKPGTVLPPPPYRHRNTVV
Description: Our ultimate goal is the identification of ErbB4 partial agonists that inhibit coupling of ErbB4 to cell proliferation, preferably through stimulation of phosphorylation-dependent ErbB4 turnover and degradation. Thus, the first goal of these experiments is to develop and deploy an assay for stimulation of ErbB4 tyrosine phosphorylation. The CEM/ErbB4 cell line previously validated for assaying ligand-induced ErbB4 tyrosine phosphorylation was used to develop a 96-well assay for stimulation and inhibition of ErbB4 tyrosine phosphorylation. Briefly, ErbB4 tyrosine phosphorylation was assayed using a “sandwich” enzyme-linked immunosorbent assay (ELISA) kit (R&D Systems) that features an anti-ErbB4 capture antibody and an anti-phosphotyrosine detection antibody.
Lysates generated by a previously established protocol for stimulating ErbB4 tyrosine phosphorylation in CEM/ErbB4 cells were used to develop and evaluate the ELISA conditions. Briefly, the CEM/ErbB4 cells were starved for 24 hours in serum- and factor-free base medium (RPMI) before being stimulated for seven minutes on ice with NRG2β (full agonist positive control), NRG2β/Q43L (partial agonist positive control), or NRG2β diluent (mock stimulation negative control). The cells were then lysed, and the lysates were immediately assayed for ErbB4 tyrosine phosphorylation or stored at -80°C until assayed.
Ligand-induced ErbB4 tyrosine phosphorylation was stimulated using a published protocol. Briefly, the CEM/ErbB4 cells were starved for 24 hours in serum- and factor-free base medium (RPMI) before being stimulated for 7 minutes on ice with an ErbB4 ligand (NRG1β, NRG2β, or NRG2β/Q43L) or candidate small molecule ErbB4 partial agonists. The cells were then lysed using a published protocol, and the lysates were immediately assayed for ErbB4 tyrosine phosphorylation or stored at -80°C until assayed.
ErbB4 tyrosine phosphorylation was analyzed using a 96-well “sandwich” enzyme-linked immunosorbent assay (ELISA) kit from R&D Systems (Catalog number DYC2115-2), which features an anti-ErbB4 capture antibody and an anti-phosphotyrosine antibody that is coupled to horseradish peroxidase (HRP). First, each well in a 96-well flat-bottom plate (ELISA plate) was coated with the anti-ErbB4 capture antibody, which recognizes the amino terminus of ErbB4. Nonspecific binding sites were then treated with a blocking buffer (1% BSA in PBS). Lysate samples containing ErbB4 were then added to the wells and incubated to permit ErbB4 binding to the immobilized anti-ErbB4 antibody. Then, an anti-phosphotyrosine antibody tagged with HRP was used to detect and visualize the phosphorylated tyrosine residues of the immobilized ErbB4 molecules. Oxidation of 3,3´,5,5´-tetramethylbenzidine by HRP (stopped using sulfuric acid) is indicative of ErbB4 tyrosine phosphorylation and was detected by measuring absorption at 450 nm. The data generated during the course of validating these assay conditions can be found in a (S1 Data).
A Beckman Coulter Biomek 4000 automated liquid handling system was used to convert our standard, batch method for agonist stimulation of ErbB4 tyrosine phosphorylation to a semi-automated 96-well methodology. […] After stimulation, lysis buffer was added to each well and incubated for 20 minutes at 4°C with shaking. Following incubation, the plates were centrifuged at 3200 RCF for 20 minutes at 4°C.

[3] = tested on: BaF3/EGFR+ErbB4 cells; assay: IL3-dependent proliferation of BaF3/EGFR+ErbB4 cells, semi-automated MTT assay; conditions: for IC50: Mus musculus, BaF3, 120 h; for IC50 against 0.1 nM IL3: three independent trials, 120 h MTT, NA = not active
Method: As noted earlier, the BaF3/EGFR+ErbB4 cells are IL3 dependent and this dependency can be rescued by stimulation of ErbB4 coupling to cell proliferation [8]. Therefore, the specificity of each of the 19 candidate ErbB4 inhibitors was tested by assaying inhibition of ErbB4-dependent and IL3-dependent cellular proliferation in parallel.

[4] = read-out: IC50 against 0.1 nM IL3
[5] = read-out: IC50 against 0.1 nM IL3, extrapolated value

SMILES	selective and potent inhibition of ErbB4-dependent cell proliferation (in words) [1]	IC50 ([1]; NA = not active)	NRG1β Emax ± SE in the presence of candidate ([1]; candidate 30 μM)	Emax [2]	EC50 [2]	IC50 [3, 4]	IC50 [3, 5]	IC50 against 0.1 nM IL3 [3]	IC50 ([1]; *Extrapolated value)	inhibition of NRG1β-stimulated ErbB4-dependent proliferation (in words) ([1]; candidate 30 μM)
CCC(=O)NC(N(Cc1ccccc1)Cc1ccccc1)C(Cl)(Cl)Cl (centres unmarked) [SR-33483]	selectively and potently inhibit	6 µM	0 AU	4.7 ± 1.1%	0.47 ± 0.38 µM	28 µM				
O=S(=O)(NCc1cccnc1)c1ccc(Br)cc1Br [SR-33485]		13 µM	0.01 ± 0.02 AU	3 ± 0.9%	< 0.3 µM		38 µM			
CCCOc1ccc(C(=O)C(CCCCC(CN(C)C)C(=O)c2ccc(OCCC)cc2)CN(C)C)cc1 (centres unmarked) [SR-33486]	selectively and potently inhibit	0.11 µM	0 AU	5.9 ± 2.8%	< 0.3 µM	0.45 µM				
O=C(Nc1cccc(O)c1)c1cc2nc(-c3ccccc3)cc(-c3ccccc3)n2n1 [SR-33487]	selectively and potently inhibit	6.8 µM	0.07 ± 0.01 AU	2.7 ± 0.2%	< 0.3 µM		2100 µM			
CCOC(=O)C1=C(N)OC2=C(C(=O)CC(C)(C)C2)C1C1CCCCC1 (centres unmarked) [SR-33491]	selectively and potently inhibit	29 µM	0.15 ± 0.02 AU	2.8 ± 0.4%	0.68 ± 0.36 µM			no inhibition		
O=C(CC1c2ccccc2Oc2ccccc21)NCCOc1ccccc1 [SR-33492]	selectively and potently inhibit	12 µM	0.03 ± 0.01 AU	1.8 ± 0.2%	4.1 ± 2.9 µM		81 µM			
O=C(c1nn2c(c1Cl)NC(c1cccs1)CC2C(F)(F)F)N(Cc1ccccc1)Cc1ccccc1 (centres unmarked) [SR-33493]		5.6 µM	0 AU	2.1 ± 3.8%	< 0.3 µM	15 µM				
O=C1NC2=Nc3ccccc3SC(c3ccccc3)=C2C(c2ccc(O)cc2)N1 (centres unmarked) [SR-33494]	selectively and potently inhibit	7 µM	0 AU	2.3 ± 0.4%	< 0.3 µM		32 µM			
O=[N+]([O-])c1ccc(CN2CCN(C3CCC(c4ccccc4)CC3)CC2)cc1 (centres unmarked) [SR-33497]			0.09 ± 0.02 AU	1.8 ± 0.5%	< 0.3 µM		390 µM		47 µM	
O=C1NC(=O)/C(=C\c2ccc(OCc3ccc4ccccc4c3)c(I)c2)N1 [SR-33498]		2.3 µM	0 AU	1.4 ± 0.4%	1.5 ± 0.6 µM	4.8 µM				
COc1cc(CNCC2CCNCC2)cc(Cl)c1OCc1ccc(C)cc1 [SR-33507]		0.39 µM	0 AU	2.9 ± 0.4%	< 0.3 µM	0.72 µM				completely inhibits
COc1ccc(C2CCCN2C(=O)c2c(-c3ccccc3Cl)noc2C)cc1 (centres unmarked) [SR-33509]			0.11 ± 0.02 AU	1.4 ± 0.3%	0.38 ± 0.25 µM			fails to inhibit	32 µM	
Cc1nn(-c2ccccc2)c2c1C(c1ccccc1F)SCC(=O)N2 (centres unmarked) [SR-33510]		11 µM	0.03 ± 0.01 AU	1.2 ± 0.4%	2 ± 0.8 µM	29 µM				
CCOc1ccc(CN(C(=O)[C@H](N)Cc2c[nH]c3ccccc23)C2CC2)cc1 [SR-33511]		6.8 µM	0 AU	5.2 ± 1%	2.1 ± 1.3 µM	13 µM				
